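Test compounds were applied to cells in 96-well plates for 48 hours at 5 doses. GI50: concentration for 50% inhibition of growth.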 Calls of active or inactive are those of the source. Rule as the data show it: active = GI50 up to about 1.1 µM and inactive = higher. Where only a bound is given, the exact number is not on record here.

Some test systems named below: NCI-H23; SF-295; SF-539; SNB-75; UACC-257; SK-OV-3; 786-0; A498; U-251; MOLT-4; NCI/ADR-RES; MDA-MB-231; ACHN; SN12C; SK-MEL-2; NCI-H522; NCI-H226; HOP-92; UO-31; DU-145.
Holding throughout (experiment): NCI tumour cell line growth inhibition, 48 h

For `O=[N+]([O-])/C(C(Cl)=C(Cl)Cl)=C(/Sc1ccccc1)N1CCCCC1`, the GI50 in the assay on NCI-H23 was > 100 µM (inactive); in the assay on SF-295 it was 43.1 µM (inactive); with SF-539, > 100 µM (inactive); with SNB-75 it was > 100 µM (inactive); in the assay on UACC-257 it was 54.2 µM (inactive); in the assay with SK-OV-3, 34.1 µM (inactive). Further, the GI50 is 31.8 µM (inactive) in the assay on 786-0; > 61.9 µM (inactive) in the assay with A498; > 100 µM (inactive) in the assay with U-251; 3.52 µM (inactive) in the assay on MOLT-4; > 100 µM (inactive) with NCI/ADR-RES; > 61.5 µM (inactive) in the assay with MDA-MB-231. The GI50 was > 100 µM (inactive) in the assay with ACHN; > 100 µM (inactive) with SN12C; 2.44 µM (inactive) with SK-MEL-2; 13.6 µM (inactive) with NCI-H522; > 100 µM (inactive) with NCI-H226; > 100 µM (inactive) in the assay on HOP-92. The GI50 with UO-31 is > 61.5 µM (inactive); with DU-145, > 53.2 µM (inactive).

`CC(=O)c1sc2c(c1OC(=O)c1ccc(Cl)cc1)c(=O)n(-c1ccccc1)c(=S)n2-c1ccccc1`: the GI50 is 17.5 µM (inactive) in the assay with NCI-H23; 0.953 µM (active) in the assay on SF-295; 1.87 µM (inactive) in the assay on SF-539; 2.99 µM (inactive) in the assay with SNB-75; 5.19 µM (inactive) in the assay on UACC-257; 1.21 µM (inactive) in the assay on SK-OV-3. Also, the GI50 in the assay with 786-0 is 3.52 µM (inactive); in the assay with A498, 1.08 µM (active); in the assay with U-251, 2.82 µM (inactive); in the assay on MOLT-4, 1.56 µM (inactive); in the assay on NCI/ADR-RES, 4.73 µM (inactive); with MDA-MB-231 it was 3.91 µM (inactive). The GI50 is 2.96 µM (inactive) in the assay with ACHN; 2.06 µM (inactive) in the assay with SN12C; 1.27 µM (inactive) in the assay on SK-MEL-2; 1.53 µM (inactive) in the assay with NCI-H522; 1.59 µM (inactive) with NCI-H226; 3.25 µM (inactive) in the assay on HOP-92. Moreover, the GI50 in the assay with UO-31 is 3.06 µM (inactive); in the assay on DU-145 it was 25.9 µM (inactive).

`Cc1cc(C)c(S(=O)(=O)N(CCCCCCN)OCCCON(CCCCCCN)S(=O)(=O)c2c(C)cc(C)cc2C)c(C)c1`: the GI50 in the assay with NCI-H23 is 1.63 µM (inactive); in the assay on SF-295 it was 1.82 µM (inactive); with SF-539, 2.28 µM (inactive); in the assay with SNB-75 it was 1.79 µM (inactive); in the assay with UACC-257, 1.69 µM (inactive); in the assay on SK-OV-3 it was 1.71 µM (inactive). Further, the GI50 in the assay with 786-0 was 1.9 µM (inactive); with A498, 1.7 µM (inactive); in the assay with U-251, 1.7 µM (inactive); in the assay on MOLT-4, 2.44 µM (inactive); in the assay on NCI/ADR-RES, 13.2 µM (inactive); with MDA-MB-231, 1.8 µM (inactive). Moreover, the GI50 was 2.55 µM (inactive) in the assay on ACHN; 1.9 µM (inactive) in the assay with SN12C; 1.89 µM (inactive) with SK-MEL-2; 1.73 µM (inactive) in the assay on NCI-H522; 1.79 µM (inactive) with NCI-H226; 1.46 µM (inactive) with HOP-92. Further, the GI50 is 2.06 µM (inactive) with UO-31 and 1.37 µM (inactive) in the assay with DU-145.

Take `COc1cc(NS(C)(=O)=O)ccc1Nc1c2ccccc2nc2c1[nH]c1ccc(NC3OC(CO)C(O)C(O)C3O)cc12` (stereo not given): the GI50 is 0.0215 µM (active) in the assay with NCI-H23; < 0.0139 µM (active) with SF-295; < 0.01 µM (active) in the assay on SF-539; 0.0251 µM (active) in the assay on SNB-75; 0.74 µM (active) with UACC-257; 0.0173 µM (active) with SK-OV-3. In addition, the GI50 in the assay on 786-0 is 0.0246 µM (active); in the assay on A498, 0.129 µM (active); in the assay on U-251, < 0.0201 µM (active); in the assay on MOLT-4 it was < 0.01 µM (active); in the assay with NCI/ADR-RES, 2.39 µM (inactive); in the assay on MDA-MB-231, 0.546 µM (active). Moreover, the GI50 in the assay on ACHN was < 0.0161 µM (active); in the assay on SN12C it was 0.0203 µM (active); with SK-MEL-2, 0.269 µM (active); in the assay with NCI-H522, 0.0923 µM (active); with NCI-H226, < 0.0181 µM (active); in the assay with HOP-92, 0.0224 µM (active). In addition, the GI50 with UO-31 is 0.128 µM (active); in the assay with DU-145, 0.0281 µM (active).

For `Cc1ccc(C2SCc3nc4ccccc4n32)cc1` (stereo not given), the GI50 is 2.72 µM (inactive) with NCI-H23; 2.19 µM (inactive) with SF-295; 2.29 µM (inactive) in the assay with SF-539; 0.0103 µM (active) in the assay on SNB-75; 4.79 µM (inactive) with UACC-257; 7.8 µM (inactive) with SK-OV-3. For the same compound, the GI50 in the assay on 786-0 was 5.62 µM (inactive); in the assay on A498 it was 3.15 µM (inactive); in the assay on U-251, 5.87 µM (inactive); in the assay on MOLT-4, 2.96 µM (inactive); with NCI/ADR-RES, 2.37 µM (inactive); in the assay with MDA-MB-231, 10.6 µM (inactive). The GI50 was 5.32 µM (inactive) with ACHN; 3.01 µM (inactive) in the assay with SN12C; 1.1 µM (active) in the assay on SK-MEL-2; 4.74 µM (inactive) in the assay with NCI-H522; 1.88 µM (inactive) in the assay on NCI-H226; 3.74 µM (inactive) in the assay with HOP-92. In addition, the GI50 is 5.36 µM (inactive) with UO-31 and 4.29 µM (inactive) in the assay with DU-145.

Regarding `Nc1nc(N)nc(CCCCc2nc(N)nc(N)n2)n1`, the GI50 in the assay with NCI-H23, with SF-295, with SF-539, in the assay on SNB-75, in the assay on UACC-257 and in the assay with SK-OV-3 was > 100 µM (inactive) throughout. The GI50 in the assay with 786-0, in the assay with A498, in the assay on U-251, in the assay on MOLT-4, with NCI/ADR-RES and with MDA-MB-231 was > 100 µM (inactive) throughout. The GI50 in the assay on ACHN, in the assay with SN12C, in the assay on SK-MEL-2, in the assay with NCI-H522, with NCI-H226 and in the assay with HOP-92 was > 100 µM (inactive) in each case. The GI50 with UO-31 and in the assay on DU-145 was > 100 µM (inactive) in each case.

`CCCCC/C(=N\c1[nH]nnc1C(N)=O)OCC`: the GI50 in the assay with NCI-H23, with SF-295, with SF-539, in the assay on SNB-75, with UACC-257 and with SK-OV-3 was > 100 µM (inactive) each time. Also, the GI50 with 786-0, in the assay on A498, in the assay on U-251, with MOLT-4, in the assay on NCI/ADR-RES and with MDA-MB-231 was > 100 µM (inactive) in each case. Besides, the GI50 is > 100 µM (inactive) in the assay with ACHN; > 100 µM (inactive) with SN12C; > 100 µM (inactive) in the assay on SK-MEL-2; > 100 µM (inactive) with NCI-H522; > 100 µM (inactive) with NCI-H226; 26.2 µM (inactive) in the assay with HOP-92. Moreover, the GI50 in the assay with UO-31 and with DU-145 was > 100 µM (inactive) throughout.

`CC(=O)O[C@H]1CC[C@@]2(C)C(=CC[C@H]3[C@@H]4C[C@H](N5CCCC5)[C@H](OC(C)=O)[C@@]4(C)CC[C@@H]32)C1`: the GI50 is > 100 µM (inactive) in the assay on NCI-H23; > 100 µM (inactive) with SF-295; 29.3 µM (inactive) in the assay with SF-539; > 100 µM (inactive) with SNB-75; 38 µM (inactive) with UACC-257; > 100 µM (inactive) with SK-OV-3. Besides, the GI50 with 786-0 was > 100 µM (inactive); in the assay with A498, > 100 µM (inactive); in the assay with U-251 it was > 100 µM (inactive); in the assay on MOLT-4, > 81.5 µM (inactive); with NCI/ADR-RES, > 100 µM (inactive); with MDA-MB-231, > 100 µM (inactive). The GI50 with ACHN, in the assay with SN12C, in the assay on SK-MEL-2, in the assay with NCI-H522, in the assay on NCI-H226 and in the assay with HOP-92 was > 100 µM (inactive) in each case. Besides, the GI50 with UO-31 and in the assay on DU-145 was > 100 µM (inactive) each time.

As to `CCCC[C@@H](C)/C=C1\CN2CCC[C@H]2[C@@](C)(OCc2ccccc2)[C@@H]1O`, the GI50 is > 50 µM (inactive) in the assay on NCI-H23; > 50 µM (inactive) in the assay on SF-295; > 22.2 µM (inactive) in the assay with SF-539; > 32.3 µM (inactive) in the assay on SNB-75; > 17.6 µM (inactive) in the assay with UACC-257; > 50 µM (inactive) with SK-OV-3. Besides, the GI50 is > 47.4 µM (inactive) in the assay with 786-0; > 47.8 µM (inactive) in the assay with A498; > 34.4 µM (inactive) in the assay on U-251; > 41.9 µM (inactive) in the assay on MOLT-4; > 50 µM (inactive) with NCI/ADR-RES; > 50 µM (inactive) with MDA-MB-231. The GI50 in the assay with ACHN was > 50 µM (inactive); with SN12C it was > 50 µM (inactive); with SK-MEL-2, > 50 µM (inactive); with NCI-H522 it was > 27.9 µM (inactive); with NCI-H226, > 50 µM (inactive); in the assay with HOP-92 it was > 42 µM (inactive). In addition, the values for the GI50 in the assay with UO-31 and in the assay with DU-145 were > 13.2 µM (inactive) and > 14.4 µM (inactive), respectively.

Regarding `COC(=O)[C@@H]1COC(C(C)(C)C)N1C(=O)C(c1ccccc1)c1ccccc1` (stereo not given in full), the GI50 in the assay with NCI-H23 is 81.7 µM (inactive); in the assay on SF-295, 60.1 µM (inactive); in the assay on SF-539, 28.7 µM (inactive); with SNB-75, 32.4 µM (inactive); in the assay on UACC-257, 33.6 µM (inactive); with SK-OV-3 it was 31.4 µM (inactive). Also, the GI50 is 46.2 µM (inactive) with 786-0; > 100 µM (inactive) in the assay on A498; 42 µM (inactive) with U-251; 38.7 µM (inactive) in the assay on MOLT-4; 34 µM (inactive) with NCI/ADR-RES; 45.2 µM (inactive) in the assay on MDA-MB-231. For the same compound, the GI50 in the assay on ACHN is 69.3 µM (inactive); in the assay with SN12C, 32.1 µM (inactive); in the assay with SK-MEL-2, 90.2 µM (inactive); in the assay on NCI-H522, 59 µM (inactive); with NCI-H226, 49.7 µM (inactive); with HOP-92 it was 37 µM (inactive). Besides, the GI50 is 52.5 µM (inactive) with UO-31 and > 100 µM (inactive) with DU-145.

Values taken from ChEMBL document CHEMBL1201862, “PubChem BioAssay data set” (2004).
